Data from patent publication US8685974B2 (Bayer CropScience AG, priority 2009, dated 2014).
Like-named read-outs stand apart in the source and are kept apart here. Marks after values point to notes of the source that are not given here.

Assays:
[1] = tested on: Fusarium graminearum; type: cell-based; conditions: 50 μM
[2] = method [c]: LC-MS at pH 7.8, 0.001 molar ammonium hydrogen carbonate, gradient 10% to 95% acetonitrile
[3] = tested on: Cochliobolus miyabeanus; experiment: Cochliobolus test (rice) / protective; type: in vivo; conditions: 500 ppm active compound, protective spray, evaluated 4 days after inoculation
[4] = tested on: Pyricularia oryzae; conditions: in vivo
[5] = tested on: Peronospora parasitica; experiment: In vivo test on Peronospora parasitica (crucifer downy mildew); conditions: dose of 500 ppm; cabbage plants; grading 5 days after contamination
Description: In Vivo Test on Peronospora parasitica (Crucifer Downy Mildew)
The active ingredients tested are prepared by homogenization in a mixture of acetone/Tween/DMSO, then diluted with water to obtain the desired active material concentration.
Cabbage plants (Eminence variety) in starter cups, sown on a 50/50 peat soil-pozzolana substrate and grown at 18-20° C., are treated at the cotyledon stage by spraying with the aqueous suspension described above.
(§1) Plants, used as controls, are treated with an aqueous solution not containing the active material.
After 24 hours, the plants are contaminated by spraying them with an aqueous suspension of Peronospora parasitica spores (50 000 spores per ml). The spores are collected from infected plant.
The contaminated cabbage plants are incubated for 5 days at 20° C., under a humid atmosphere.
Grading is carried out 5 days after the contamination, in comparison with the control plants.

[6] = tested on: Rhizoctonia solani; experiment: Rhizoctonia test (rice) / protective; type: in vivo; conditions: 500 ppm active compound, protective spray, evaluated 4 days after inoculation
Description: Rhizoctonia Test (Rice)/Protective
Solvent: 28.5 parts by weight of acetone
Emulsifier: 1.5 parts by weight of polyoxyethylene alkyl phenyl ether
To produce a suitable preparation of active compound, 1 part by weight of active compound is mixed with the stated amounts of solvent and emulsifier, and the concentrate is diluted with water to the desired concentration.
To test for protective activity, young plants are sprayed with the preparation of active compound at the stated rate of application. One day after spraying, the plants are inoculated with a hypha of the causal agent of rice sheath blight (Rhizoctonia solani). The plants are then placed in an incubator at approximately 25° C. and a relative atmospheric humidity of approximately 100%.
The test is evaluated 4 days after the inoculation. 0% means an efficacy which corresponds to that of the control, while an efficacy of 100% means that no disease is observed.

[7] = tested on: Fusarium proliferatum; experiment: Production of fumonisin FB1 by Fusarium proliferatum (microtiter plate, HPLC-MS/MS and OD620); type: cell-based
[8] = tested on: Sphaerotheca fuliginea; experiment: In vivo test on Sphaerotheca fuliginea (cucurbits powdery mildew); conditions: dose of 500 ppm; gherkin plants; grading 12 days after contamination
Description: In Vivo Test on Sphaerotheca fuliginea (Cucurbits Powdery Mildew)
(§2) The active ingredients tested are prepared by homogenization in a mixture of acetone/tween/DMSO, then diluted with water to obtain the desired active material.
Gherkin plants (Vert petit de Paris variety) in starter cups, sown on a 50/50 peat soil-pozzolana substrate and grown at 20° C./23° C., are treated at the cotyledon Z10 stage by spraying with the aqueous suspension described above. Plants, used as controls, are treated with an aqueous solution not containing the active material.
After 24 hours, the plants are contaminated by spraying them with an aqueous suspension of Sphaerotheca fuliginea spores (100 000 spores per ml). The spores are collected from a contaminated plants. The contaminated gherkin plants are incubated at about 20° C./25° C. and at 60/70% relative humidity.
Grading (% of efficacy) is carried out 12 days after the contamination, in comparison with the control plants.

[9] = tested on: Pyricularia grisea; conditions: in vivo
[10] = tested on: Botrytis cinerea; experiment: In vivo test on Botrytis cinerea (grey mould); conditions: dose of 500 ppm; gherkin plants; grading 5/7 days after contamination
Description: In Vivo Test on Botrytis cinerea (Grey Mould)
The active ingredients tested are prepared by homogenization in a mixture of acetone/Tween/DMSO, then diluted with water to obtain the desired active material
Gherkin plants (Vert petit de Paris variety), sown on a 50/50 peat soil-pozzolana substrate in starter cups and grown at 18-20° C., are treated at the cotyledon Z11 stage by spraying with the active ingredient prepared as described above.
as §1
After 24 hours, the plants are contaminated by depositing drops of an aqueous suspension of Botrytis cinerea spores (150,000 spores per ml) on upper surface of the leaves. The spores are collected from a 15-day-old culture and are suspended in a nutrient solution composed of: • 20 g/L of gelatine; • 50 g/L of D-fructose; • 2 g/L of NH4NO3; • 1 g/L of KH2PO4.
The contaminated cucumber plants are settled for 5/7 days in a climatic room at 15-11° C. (day/night) and at 80% relative humidity.
Grading is carried out 5/7 days after the contamination, in comparison with the control plants.

[11] = tested on: Puccinia recondita; experiment: In vivo test on Puccinia recondita (brown rust); conditions: dose of 500 ppm; wheat plants; grading 10 days after contamination
Description: In Vivo Test on Puccinia recondita (Brown Rust)
as §2
Wheat plants (Scipion variety) sown on 50/50 peat soil-pozzolana substrate in starter cups and grown at 12° C., are treated at the 1-leaf stage (10 cm tall) by spraying with the aqueous suspension described above.
as §1
After 24 hours, the plants are contaminated by spraying the leaves with an aqueous suspension of Puccinia recondita spores (100,000 spores per ml). The spores are collected from a 10-day-old contaminated wheat and are suspended in water containing 2.5 ml/l of tween 80 10%. The contaminated wheat plants are incubated for 24 hours at 20° C. and at 100% relative humidity, and then for 10 days at 20° C. and at 70% relative humidity.
Grading is carried out 10 days after the contamination, in comparison with the control plants.

[12] = tested on: Alternaria solani; experiment: Alternaria test (tomato) / protective; type: in vivo; conditions: 500 ppm active compound, protective spray, evaluated 7 days after inoculation
Outline: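 Young tomato plants sprayed protectively with compound formulated in DMF with alkylaryl polyglycol ether emulsifier and diluted in water to the application rate. After inoculation, plants held at 96% rel. humidity and 20° C. Efficacy scored 7 days post-inoculation: 0% equals untreated control, 100% no infection.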

[13] = tested on: Pyrenophora teres; experiment: In vivo test on Pyrenophora teres (barley net blotch); conditions: dose of 500 ppm; barley plants; grading 12 days after contamination
Outline: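 Barley plants (Plaisant) grown at 12° C. sprayed at 1-leaf stage with compound in acetone/Tween/DMSO diluted in water; 24 h later inoculated with P. teres spores (12,000 spores/ml). Incubated 24 h at ~20° C., 100% RH, then 12 days at 80% RH; graded 12 days post-inoculation against untreated controls.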

[14] = tested on: Phakopsora pachyrhizi; conditions: 250 ppm active substance; protective; assessment 11 days after inoculation

**Q.** For `CCC(C)n1cc(-c2ccnc(N)c2)c(-c2ccc(Cl)s2)n1` (stereo not drawn) [Example 317], which “% Inhibition of fungal growth at 50 μM” value [1] is on record?
**A.** 78%

**Q.** And the “% Inhibition of DON/AcDON at 50 μM” value ([1]; 7 days at 28° C.)?
**A.** 100%

**Q.** And the log p [2]?
**A.** 3.31^[c]

**Q.** With `CC(C)n1cc(-c2ccncc2)c(-c2ccc(Cl)s2)n1` [Example 38] as the compound, how does the efficacy [3] read?
**A.** 93%

**Q.** What about the efficacy [4] of the same compound?
**A.** 98%

**Q.** What about the protection [5] of the same compound?
**A.** 97%

**Q.** What about the efficacy [6] of the same compound?
**A.** 97%

**Q.** What about the “% inhibition FB1 production at 50 μM” value ([7]; 5 days at 20° C., HPLC-MS/MS) of the same compound?
**A.** 100%

**Q.** And the “% inhibition fungal growth at 50 μM” value ([7]; Fusarium proliferatum, OD620 at start and after 5 days)?
**A.** 88%

**Q.** And the “protection (% of efficacy)” value [8]?
**A.** 83%

**Q.** What about the “protection (% of efficacy)” value [9] of the same compound?
**A.** 98%

**Q.** What about the log p (pH 2.3) of the same compound?
**A.** 1.63^[a];

**Q.** And the log p (pH 2.7)?
**A.** 1.88^[b]

**Q.** And the protection [10]?
**A.** 100%

**Q.** And the protection [11]?
**A.** 72%

**Q.** What does the source list for `C#CCn1cc(-c2ccncc2)c(-c2ccc(Cl)s2)n1` [Example 47]?
**A.** efficacy [4]: 86%; efficacy [12]: 95%; protection [5]: 100%; protection (% of efficacy) [9]: 86%; logP value of the minor isomer (in parenthesis in column Isomer ratio [d]) (minor isomer, main value of the example measured by method [b], pH 2.7): (1.36); log p (pH 2.7): 1.54^[b]; protection [13]: 70%; protection [11]: 71%

**Q.** With `CCC(C)n1cc(-c2ccncc2)c(-c2ccc(Cl)s2)n1` (stereo not drawn) [Example 8] as the compound, how does the protection [5] read?
**A.** 92%

**Q.** And the activity level [14]?
**A.** 98%

**Q.** What about the log p (pH 2.7) of the same compound?
**A.** 2.1^[b]

**Q.** And the protection [13]?
**A.** 100%

**Q.** And the protection [10]?
**A.** 100%

**Q.** What about the protection [11] of the same compound?
**A.** 86%

**Q.** Which log p [2] does the source give for `CCC(C)n1cc(-c2ccnc(N=C(c3ccccc3)c3ccccc3)c2)c(-c2ccc(Cl)s2)n1` (stereo not drawn) [Example 308] here?
**A.** 6.5^[c]
